Several values for one entry are separate records, joined by “and”; a condition that tells them apart may be missing. Equal entries are not always repeated. Where two headings read alike, the source gives them in different places.
Target: recombinant RSV L+P (Human respiratory syncytial virus A, UniProt P28887)
Assay: Primed single nucleotide incorporation (SNI) gel assay, recombinant RSV L+P
Format: biochemical, Human RSV (strain A2)
Conditions: for pGCG formation, % inhbition / pGCGA formation, % inhbition / pGCGAA formation, % inhbition: le-11, +3 site
Experimental: RNA polymerase reaction samples consisted of 0.2 μM recombinant RSV L-P polymerase, 0.2 μM of an RNA template (Le11 or Tr14), and 400 μM of a short primer (sequences as indicated in the figures), mixed in a buffer containing 50 mM Tris pH 7.4, 2 mM dithiothreitol and 6 mM MgCl2. For the assay in Fig. 1d, reactions were started by adding 100 nM [α-^32P]GTP (3000 Ci/mmol) tracer and incubated at 30 °C for 10 min. […] Reactions were stopped by adding an equal volume of gel loading buffer containing 90% formamide, 50 mM EDTA, 0.05% Xylene Cyanol, and Bromophenol Blue. Samples were denatured at 95 °C for 5 min and run on a 22.5% polyacrylamide urea sequencing gel at 80 W. The gel was transferred onto a Whatman cellulose chromatography paper (Millipore Sigma) and dried on a gel dryer (Bio-Rad) for 1 h. The dried gel was exposed to a phosphor-screen, scanned on a Typhoon phosphorimager (GE Healthcare), and quantified using ImageQuant (GE Healthcare).

[1] = le-11, +1 site, 1 uM, replicates, 1 µM
[2] = tr-14, +1 site, 0.00390625 uM, replicates, 0.00390625 µM
[3] = tr-14, +1 site, 0.0078125 uM, replicates, 0.0078125 µM
[4] = tr-14, +1 site, 0.015625 uM, replicates, 0.015625 µM
[5] = tr-14, +1 site, 0.03125 uM, replicates, 0.03125 µM
[6] = tr-14, +1 site, 0.0625 uM, replicates, 0.0625 µM
[7] = tr-14, +1 site, 0.125 uM, replicates, 0.125 µM
[8] = tr-14, +1 site, 0.25 uM, replicates, 0.25 µM
[9] = tr-14, +1 site, 0.5 uM, replicates, 0.5 µM
[10] = tr-14, +1 site, 1 uM, replicates, 1 µM

Sequence of recombinant RSV L+P (P28887 whole entry): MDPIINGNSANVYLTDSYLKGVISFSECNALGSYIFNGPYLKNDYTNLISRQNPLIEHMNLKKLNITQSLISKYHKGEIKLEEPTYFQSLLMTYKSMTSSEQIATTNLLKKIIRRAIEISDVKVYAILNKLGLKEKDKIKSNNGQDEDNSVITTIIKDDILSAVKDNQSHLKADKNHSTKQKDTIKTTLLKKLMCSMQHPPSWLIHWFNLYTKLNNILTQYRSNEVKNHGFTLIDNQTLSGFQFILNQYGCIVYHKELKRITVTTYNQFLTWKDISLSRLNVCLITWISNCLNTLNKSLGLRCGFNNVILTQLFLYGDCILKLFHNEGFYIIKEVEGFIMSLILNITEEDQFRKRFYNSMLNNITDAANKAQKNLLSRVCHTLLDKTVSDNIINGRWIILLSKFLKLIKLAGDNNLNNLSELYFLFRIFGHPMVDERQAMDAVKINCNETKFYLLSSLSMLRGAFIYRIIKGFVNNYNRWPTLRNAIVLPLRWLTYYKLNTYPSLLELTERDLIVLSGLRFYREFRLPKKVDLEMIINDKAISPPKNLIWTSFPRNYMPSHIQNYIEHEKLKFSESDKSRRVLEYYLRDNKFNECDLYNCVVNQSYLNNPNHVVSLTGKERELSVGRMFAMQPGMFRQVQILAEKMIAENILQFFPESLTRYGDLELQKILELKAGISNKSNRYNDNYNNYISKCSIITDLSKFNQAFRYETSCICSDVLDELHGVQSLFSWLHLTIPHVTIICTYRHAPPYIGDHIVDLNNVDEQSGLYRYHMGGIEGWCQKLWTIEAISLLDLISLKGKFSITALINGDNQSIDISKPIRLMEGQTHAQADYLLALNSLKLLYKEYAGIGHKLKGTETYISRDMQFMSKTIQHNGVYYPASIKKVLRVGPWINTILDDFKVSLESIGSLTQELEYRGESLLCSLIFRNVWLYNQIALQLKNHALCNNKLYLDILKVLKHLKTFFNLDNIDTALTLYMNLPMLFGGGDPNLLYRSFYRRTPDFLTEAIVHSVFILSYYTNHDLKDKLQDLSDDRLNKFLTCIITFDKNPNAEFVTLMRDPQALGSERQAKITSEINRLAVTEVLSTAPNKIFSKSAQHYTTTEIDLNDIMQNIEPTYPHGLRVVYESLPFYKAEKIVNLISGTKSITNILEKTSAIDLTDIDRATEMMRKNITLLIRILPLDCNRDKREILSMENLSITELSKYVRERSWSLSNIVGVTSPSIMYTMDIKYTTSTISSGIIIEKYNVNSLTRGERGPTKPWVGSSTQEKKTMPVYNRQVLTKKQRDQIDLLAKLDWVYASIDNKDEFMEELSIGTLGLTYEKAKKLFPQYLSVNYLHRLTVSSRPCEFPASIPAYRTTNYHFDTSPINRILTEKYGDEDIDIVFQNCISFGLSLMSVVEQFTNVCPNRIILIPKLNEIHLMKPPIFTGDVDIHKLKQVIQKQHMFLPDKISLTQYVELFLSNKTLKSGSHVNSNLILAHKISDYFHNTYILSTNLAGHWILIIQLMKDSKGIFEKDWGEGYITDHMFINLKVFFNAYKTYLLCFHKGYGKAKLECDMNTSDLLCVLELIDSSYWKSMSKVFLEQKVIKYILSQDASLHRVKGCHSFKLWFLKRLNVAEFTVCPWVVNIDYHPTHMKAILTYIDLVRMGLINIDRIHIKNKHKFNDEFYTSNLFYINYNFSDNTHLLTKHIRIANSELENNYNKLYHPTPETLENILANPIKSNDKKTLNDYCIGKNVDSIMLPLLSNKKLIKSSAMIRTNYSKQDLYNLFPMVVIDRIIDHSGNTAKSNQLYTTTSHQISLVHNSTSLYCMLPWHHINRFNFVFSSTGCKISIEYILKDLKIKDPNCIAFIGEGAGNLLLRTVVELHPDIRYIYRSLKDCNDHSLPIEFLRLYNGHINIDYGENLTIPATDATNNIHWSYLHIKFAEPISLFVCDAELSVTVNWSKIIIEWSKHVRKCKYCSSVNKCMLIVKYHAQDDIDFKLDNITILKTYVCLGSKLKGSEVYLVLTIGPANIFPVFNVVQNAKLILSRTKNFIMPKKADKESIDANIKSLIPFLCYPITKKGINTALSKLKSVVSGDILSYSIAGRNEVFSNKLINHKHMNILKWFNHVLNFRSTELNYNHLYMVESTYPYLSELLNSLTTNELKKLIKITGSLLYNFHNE
Sequence of recombinant RSV L+P (P03421 whole entry, further chain): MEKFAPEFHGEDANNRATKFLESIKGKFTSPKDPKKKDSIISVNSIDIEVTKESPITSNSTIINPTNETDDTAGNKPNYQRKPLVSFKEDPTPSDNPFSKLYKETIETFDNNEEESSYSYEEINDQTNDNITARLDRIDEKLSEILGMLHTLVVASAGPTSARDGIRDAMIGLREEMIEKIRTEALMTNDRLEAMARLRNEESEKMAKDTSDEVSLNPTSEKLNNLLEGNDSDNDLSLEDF

## COc1cc(C(=O)NC[C@](O)(c2cc(C(C)(C)O)c(F)c(-c3ccc(F)cc3)n2)C(F)(F)F)cc2cc(C)nnc12 [JNJ-8003]
le-11, +1 site, 0.5 uM, replicates, 0.5 µM
  pACGCG formation, % inhibition: 94.5159%
le-11, +1 site, 0.5 uM, replicates, read-out: pACG formation, % inhibition
  inhibition at 0.5 µM: 92.2%
le-11, +1 site, 0.5 uM, replicates, read-out: pACGC formation, % inhibition
  inhibition at 0.5 µM: 16.5%
le-11, +1 site, 0.5 uM, replicates, read-out: pACGCG formation, % inhibition
  inhibition at 0.5 µM: 92%
[1]
  pACG formation, % inhibition: 87.3809%
  pACGCG formation, % inhibition: 94.5412%
le-11, +1 site, 1 uM, replicates, read-out: pACG formation, % inhibition
  inhibition at 1 µM: 92.2%
le-11, +1 site, 1 uM, replicates, read-out: pACGC formation, % inhibition
  inhibition at 1 µM: 32.4%
le-11, +1 site, 1 uM, replicates, read-out: pACGCG formation, % inhibition
  inhibition at 1 µM: 96.1%
0.00390625 uM, replicates
  pGCG formation, % inhbition: 23.7355% and 15.5622%
  pGCGA formation, % inhbition: 16.5629% and 19.135%
  pGCGAA formation, % inhbition: 30.4505% and 24.1004%
0.0078125 uM, replicates
  pGCG formation, % inhbition: 29.8775% and 21.4895%
  pGCGA formation, % inhbition: 17.4928% and 21.885%
  pGCGAA formation, % inhbition: 52.8128% and 27.8666%
0.015625 uM, replicates
  pGCG formation, % inhbition: 50.6818% and 35.2042%
  pGCGA formation, % inhbition: 18.8117% and 25.399%
  pGCGAA formation, % inhbition: 51.4133% and 43.0842%
0.03125 uM, replicates
  pGCG formation, % inhbition: 80.9404% and 57.9787%
  pGCGA formation, % inhbition: 58.0899% and 36.3323%
  pGCGAA formation, % inhbition: 92.0704% and 68.8528%
0.0625 uM, replicates
  pGCG formation, % inhbition: 96.7556% and 96.0463%
  pGCGA formation, % inhbition: 77.4419% and 86.4681%
  pGCGAA formation, % inhbition: 98.2035% and 97.0821%
0.125 uM, replicates
  pGCG formation, % inhbition: 97.7751% and 97.5727%
  pGCGA formation, % inhbition: 83.7601% and 82.1258%
  pGCGAA formation, % inhbition: 98.5207% and 97.9021%
0.25 uM, replicates
  pGCG formation, % inhbition: 97.8446% and 96.8207%
  pGCGA formation, % inhbition: 81.8016% and 75.4758%
  pGCGAA formation, % inhbition: 98.388% and 97.2094%
0.5 uM, replicates
  pGCG formation, % inhbition: 96.68% and 97.1903%
  pGCGA formation, % inhbition: 77.4429% and 81.101%
  pGCGAA formation, % inhbition: 98.095% and 97.9035%
1 uM, replicates
  pGCG formation, % inhbition: 97.6913% and 97.6125%
  pGCGA formation, % inhbition: 86.6689% and 82.9875%
  pGCGAA formation, % inhbition: 98.8723% and 98.1005%
le-11 and tr-14 templates, +1 and +3 site, read-out: IC50 values in the SNI assays
  IC50: 17 to 32 nM
[2]
  pACG formation, % inhibition: 31.6%
  pACGAG formation, % inhibition: 12.8614% and 26.6827%
tr-14, +1 site, 0.00390625 uM, replicates, read-out: pACG formation, % inhibition
  inhibition at 0.00390625 µM: 28.1%
[3]
  pACG formation, % inhibition: 29.3%
  pACGAG formation, % inhibition: 35.8415%
tr-14, +1 site, 0.0078125 uM, replicates, read-out: pACG formation, % inhibition
  inhibition at 0.0078125 µM: 41.6%
tr-14, +1 site, 0.0078125 uM, replicates, read-out: pACGAG formation, % inhibition
  inhibition at 0.0078125 µM: 21.3%
[4]
  pACG formation, % inhibition: 48.5%
  pACGAG formation, % inhibition: 57.7598%
tr-14, +1 site, 0.015625 uM, replicates, read-out: pACG formation, % inhibition
  inhibition at 0.015625 µM: 62.7%
tr-14, +1 site, 0.015625 uM, replicates, read-out: pACGAG formation, % inhibition
  inhibition at 0.015625 µM: 50.6%
[5]
  pACG formation, % inhibition: 79.8%
  pACGAG formation, % inhibition: 90.4225%
tr-14, +1 site, 0.03125 uM, replicates, read-out: pACG formation, % inhibition
  inhibition at 0.03125 µM: 93.9%
tr-14, +1 site, 0.03125 uM, replicates, read-out: pACGA formation, % inhibition
  inhibition at 0.03125 µM: 19.2%
tr-14, +1 site, 0.03125 uM, replicates, read-out: pACGAG formation, % inhibition
  inhibition at 0.03125 µM: 92.2%
[6]
  pACG formation, % inhibition: 93.7%
  pACGAG formation, % inhibition: 96.2948%
tr-14, +1 site, 0.0625 uM, replicates, read-out: pACG formation, % inhibition
  inhibition at 0.0625 µM: 95.6%
tr-14, +1 site, 0.0625 uM, replicates, read-out: pACGA formation, % inhibition
  inhibition at 0.0625 µM: 23%
tr-14, +1 site, 0.0625 uM, replicates, read-out: pACGAG formation, % inhibition
  inhibition at 0.0625 µM: 95.3%
[7]
  pACG formation, % inhibition: 94.1%
  pACGAG formation, % inhibition: 96.5623%
tr-14, +1 site, 0.125 uM, replicates, read-out: pACG formation, % inhibition
  inhibition at 0.125 µM: 95.7%
tr-14, +1 site, 0.125 uM, replicates, read-out: pACGA formation, % inhibition
  inhibition at 0.125 µM: 18.9%
tr-14, +1 site, 0.125 uM, replicates, read-out: pACGAG formation, % inhibition
  inhibition at 0.125 µM: 95.9%
[8]
  pACG formation, % inhibition: 94.4%
  pACGAG formation, % inhibition: 96.9953%
tr-14, +1 site, 0.25 uM, replicates, read-out: pACG formation, % inhibition
  inhibition at 0.25 µM: 95.3%
tr-14, +1 site, 0.25 uM, replicates, read-out: pACGA formation, % inhibition
  inhibition at 0.25 µM: 21.3%
tr-14, +1 site, 0.25 uM, replicates, read-out: pACGAG formation, % inhibition
  inhibition at 0.25 µM: 96.3%
[9]
  pACG formation, % inhibition: 93.2%
  pACGAG formation, % inhibition: 97.0094%
tr-14, +1 site, 0.5 uM, replicates, read-out: pACG formation, % inhibition
  inhibition at 0.5 µM: 93.9%
tr-14, +1 site, 0.5 uM, replicates, read-out: pACGAG formation, % inhibition
  inhibition at 0.5 µM: 95.7%
[10]
  pACG formation, % inhibition: 91.9%
  pACGAG formation, % inhibition: 97.3064%
tr-14, +1 site, 1 uM, replicates, read-out: pACG formation, % inhibition
  inhibition at 1 µM: 92.2%
tr-14, +1 site, 1 uM, replicates, read-out: pACGA formation, % inhibition
  inhibition at 1 µM: 39%
tr-14, +1 site, 1 uM, replicates, read-out: pACGAG formation, % inhibition
  inhibition at 1 µM: 97%
